Entries after “also recorded” stand apart in the source; their conditions may differ. Read-outs that look alike come from different tables or passages of the source.
Columns and labels:
[1] = system: hairless mice (UV-induced skin thickening); assay: Eight dose UV exposure, bi-folded epidermal thickness in hairless wild type and β2-AR knockout mice; assay type: in vivo, mouse; conditions: 5 μM in 200 μL acetone topically every other day, 200 mJ/cm^2 UV, eight irradiations
Experimental: The Western University of Health Sciences’ Institutional Animal Care and Use Committee (WesternU IACUC) approved all animal studies prior to initiating any experiments. The animal studies were carried out under WesternU IACUC recommendations and guidelines, which follow NIH guidelines. Mice had access to water and food ad libitum and housed on a 12-hour light/dark cycle with 35% humidity. Homozygous β1-AR and β2-AR null mice (Adrb1^tm1Bkk Adrb2^tm1Bkk/J Stock Number 003810) were purchased from Jackson Laboratory (Bar Harbor, ME); the double knockout mice were characterized previously. The double knockout mice were bred with C57BL/6J from Jackson Lab to generate a heterozygous F1 generation. The F1 generation was bred together to generate the F2 generation of which 1/16th of the offspring were a β2-AR knockout mouse. SKH-1 mice purchased from Charles River (Wilmington, MA) were bred with the β2-AR knockout mice generating a second heterozygous F1 generation. The F1 generation was bred together to generate the F2 generation of which 1/16th of the offspring were a hairless β2-AR knockout mouse. The F2 generation was backcrossed with a new batch of SKH-1 from Charles River to generate mice more efficiently. The mice used in this study are 75% SKH-1 and 25% mixed background. Following experimentation, and to cull the unused mice in a colony, mice were euthanized via exposure to 32% Isoflurane followed by cervical dislocation to ensure euthanization prior to disposal.
The first two weeks were pretreatment and the second two weeks were during the UV irradiation procedure, but drugs were applied the day after UV exposure to avoid sunscreen effects. All groups involved with UV were irradiated with 200 mJ/cm^2 dose of UV every other day for a total of eight irradiations. Bi-folded epidermal thickness was measured using a digital caliper before drug treatment on non-radiation days. Three skin thickness measurements were taken along the left, middle, and right dorsal epidermal layer, and the mean thickness was recorded for each mouse.

β2-AR [2] = system: β2-AR; design: method as in as printed in each cell (43-46, 48-54, 56-58); conditions: as described in the references; ref (43-46, 48-54, 56-58); cited from earlier work
JB6 P+ cells [3] = assay: SRB cytotoxicity assay; assay type: cell-based, mouse; conditions: for SRB Assay Log IΔ2*PSD: NT = no toxicity at any concentration tested; for Toxicity label: Toxic = no 10-fold difference between IΔ2*PSD from soft agar and SRB assays
Experimental: 96-well plates were seeded with 3x10^3 JB6 P+ cells per well and allowed to attach overnight. […] Cell viability was determined using Sulforhodamine B (SRB) assay from Sigma-Aldrich according to the manufacturer’s protocol. Cellular protein content was measured using a Bio-Tek μQuant plate reader with KCJunior software.
Concentration-response curves were normalized so that the EGF positive control on each 96-well plate was set to 100% and the control wells on each plate were set to 0%. Toxicity assays (SRB and MTS) were normalized so that the control on each plate represented 100% viability. Normalization allowed for comparison of data over a range of JB6 P+ cell cultures, passages, and experimental time for the shRNA studies, as well as control for variation in the EGF response, and importantly allowed for a direct comparison to all concentration-response experiments including the toxicity assays. […] All group sizes were determined via previous studies to provide statistically meaningful data. In the soft agar assays, key results were repeated with different JB6 P+ cells to confirm the results. Similarly, the shRNA studies were conducted with three independent concentration-response curves with different JB6 P+ cell stocks. […] For two sample comparisons a t-test was utilized, and when comparing multiple samples a One-, Two-, or Three-Factor ANOVA followed by Tukey-Kramer post hoc test was utilized depending on the data. For all tests, statistical difference was donated when p < 0.05.
The IΔ2*PSD is expressed in x-axis units (log [M]) as is an IC50 and it represents the first concentration where it is expected to observe a statistical decrease in the measured signal.
Using the formula provided by GraphPad Prism or a straight line for the point-to-point graphs, the X-axis value for point Y was determined. The error is ascribed to this measurement via adding and subtracting the pooled standard deviation (PSD) to/from point Y generating point Y ± PSD. The two new points were then transformed to the X-axis units as was done for point Y creating an asymmetric error in sigmoidal plots. When the error was asymmetric, the larger error value was chosen to err on the conservative side. See S1 Fig for a pictoral explination of the method. The data is presented as IΔ2*PSD ± error.

JB6 P+ cells [4] = assay: Anchorage-independent growth assay in soft agar (EGF-induced JB6 P+ colony formation); assay type: cell-based, mouse; conditions: for minimal effective concentration / IC50 / Emax: Mus musculus; for minimal effective concentration / IC50 / effect on EGF-mediated transformation of JB6 P+ cells, words: 10 ng/mL EGF; for minimal effective concentration: first concentration with expected statistical decrease, read-out: Soft Agar Assay Log IΔ2*PSD (converted); for Emax: efficacy of inhibition of colony formation, reported if non-toxic
Experimental: Ten ng/mL EGF was used to promote the anchorage-independent growth of JB6 cells. […] Plates were incubated at 37°C, 5% CO2 for 14 days. Colonies with greater than ten cells were counted manually under a microscope. […] Normalization allowed for comparison of data over a range of JB6 P+ cell cultures, passages, and experimental time for the shRNA studies, as well as control for variation in the EGF response, and importantly allowed for a direct comparison to all concentration-response experiments including the toxicity assays. […] All group sizes were determined via previous studies to provide statistically meaningful data. In the soft agar assays, key results were repeated with different JB6 P+ cells to confirm the results. Similarly, the shRNA studies were conducted with three independent concentration-response curves with different JB6 P+ cell stocks. […] For two sample comparisons a t-test was utilized, and when comparing multiple samples a One-, Two-, or Three-Factor ANOVA followed by Tukey-Kramer post hoc test was utilized depending on the data. For all tests, statistical difference was donated when p < 0.05. […] The I[…]*PSD is expressed in x-axis units (log [M]) as is an IC50 and it represents the first concentration where it is expected to observe a statistical decrease in the measured signal. […] Using the formula provided by GraphPad Prism or a straight line for the point-to-point graphs, the X-axis value for point Y was determined. The error is ascribed to this measurement via adding and subtracting the pooled standard deviation (PSD) to/from point Y generating point Y ± PSD. The two new points were then transformed to the X-axis units as was done for point Y creating an asymmetric error in sigmoidal plots. When the error was asymmetric, the larger error value was chosen to err on the conservative side. See S1 Fig for a pictoral explination of the method. The data is presented as I[…]*PSD ± error.

JB6 P+ cells [5] = conditions: cited from earlier work
β2-AR [6] = conditions: given as negative log value; cited from earlier work
α1D-AR = conditions: read-out: Kd towards the α1D-AR; cited from earlier work
[7] = 336 h, 14 days, negative log value, read-out: Soft Agar Assay Log IC50 (converted)
[8] = soft agar, read-out: IC50, inhibition of EGF-mediated transformation

## Oc1cccc2[nH]c3ccccc3c12 [4-OHC, 4-Hydroxycarbazole]
[1]; wild type mice
  effect on UV-induced skin thickening, words: little effect in wild type mice
[1]; β2-AR knockout mice
  effect on UV-induced skin thickening, words: no effect in knockout mice

## CCCC(=O)Nc1ccc(OCC(O)CNC(C)C)c(C(C)=O)c1 (stereo not shown) [Acebutolol]
β2-AR [2]
  Pharmacological property at β2-AR: Partial agonist [56]
JB6 P+ cells [3]; 72 hr
  SRB Assay Log IΔ2*PSD: -3.39 ± 0.70 log [M]
JB6 P+ cells [3]
  Toxicity label: Toxic
JB6 P+ cells [4]; 336 h, 14 days
  minimal effective concentration: 49 µM

## C=CCc1ccccc1OCC(O)CNC(C)C (stereo not shown) [Alprenolol]
β2-AR [2]
  Pharmacological property at β2-AR: Biased agonist/ activates ERK [43]
JB6 P+ cells [3]; 72 hr
  SRB Assay Log IΔ2*PSD: -4.95 ± 0.06 log [M]
JB6 P+ cells [4]; [7]
  IC50: 427 nM
JB6 P+ cells [4]
  Emax: 93.8 ± 2.88%

## CC(C)NCC(O)COc1ccc(CC(N)=O)cc1 (stereo not shown) [Atenolol]
β2-AR [2]
  Pharmacological property at β2-AR: Inverse agonist for cAMP [50]
JB6 P+ cells [4]
  Emax: 47.9 ± 7.81%
JB6 P+ cells [5]; 10 ng/mL EGF, negative log value
  Soft Agar Assay Log IC50: -5.04 ± 0.27 [19] log [M]
JB6 P+ cells [5]; previous data
  effect on EGF-mediated transformation of JB6 P+ cells, words: less potent and displayed partial efficacy
JB6 P+ cells [5]; previously published atenolol, read-out: IC50, inhibition of EGF-mediated transformation
  IC50: 9190 nM

## CC(C)(Cc1c[nH]c2ccccc12)NCC(O)COc1ccccc1C#N (stereo not shown) [Bucindolol]
β2-AR [2]
  Pharmacological property at β2-AR: Partial agonist for cAMP and full agonist for ERK [44, 52]
JB6 P+ cells [3]; 72 hr
  SRB Assay Log IΔ2*PSD: -4.84 ± 0.10 log [M]
JB6 P+ cells [3]
  Toxicity label: Toxic
JB6 P+ cells [4]; [7]
  IC50: 9330 nM
JB6 P+ cells [4]; 336 h, 14 days
  minimal effective concentration: 1.91 µM
β2-AR [6]
  Log Kd at β2-AR: -8.22 ± 0.1 [52]

## Cc1ccc(Cl)c(OCC(O)CNC(C)(C)C)c1 (stereo not shown) [Bupranolol]
β2-AR [2]
  Pharmacological property at β2-AR: Antagonist, not specified
JB6 P+ cells [3]; 72 hr
  SRB Assay Log IΔ2*PSD: -4.80 ± 0.05 log [M]
JB6 P+ cells [3]
  Toxicity label: Toxic

## CC(C)(C)NCC(O)COc1cccc2[nH]c(=O)[nH]c12 (stereo not shown) [CGP 12177]
β2-AR [2]
  Pharmacological property at β2-AR: Partial agonist [53]
JB6 P+ cells [3]; 72 hr
  SRB Assay Log IΔ2*PSD: -4.46 ± 0.19 log [M]
JB6 P+ cells [3]
  Toxicity label: Toxic
JB6 P+ cells [4]; soft agar
  effect on EGF-mediated transformation of JB6 P+ cells, words: do not prevent EGF-induced transformation of JB6 P+ cells
JB6 P+ cells [4]; 336 h, 14 days
  minimal effective concentration: 7.59 µM

## CC(C)NCC(O)COc1cccc2[nH]c3ccccc3c12 (stereo not shown) [Carazolol]
JB6 P+ cells [3]; 72 hr
  SRB Assay Log IΔ2*PSD: -5.00 ± 0.14 log [M]
JB6 P+ cells [3]
  Toxicity label: Toxic
JB6 P+ cells [4]; 336 h, 14 days
  minimal effective concentration: 7.41 µM

## Cl.O=C1c2ccccc2CCC1CNCCc1ccc(O)cc1 (stereo not drawn) [HEAT HCl, 2-{[β-(4-Hydroxyphenyl)ethyl]aminomethyl}-1-tetralone hydrochloride]
JB6 P+ cells [3]; 72 hr
  toxicity in SRB assay, words: toxicity at 10 μM
  SRB Assay Log IΔ2*PSD: -5.99 ± 0.03 log [M]
JB6 P+ cells [4]; soft agar
  effect on EGF-mediated transformation of JB6 P+ cells, words: only inhibited colony formation at 1 and 10 μM; also recorded: do not prevent EGF-induced transformation of JB6 P+ cells
JB6 P+ cells [4]; 336 h, 14 days
  minimal effective concentration: 0.145 µM
α1D-AR
  Kd: 0.361 ± 0.08 nM

## Cc1ccc(OCC(O)C(C)NC(C)C)c2c1CCC2 (stereo not shown) [ICI 118,551]
β2-AR [2]
  Pharmacological property at β2-AR: Inverse agonist for cAMP that recruits ±-arr [29, 49]
JB6 P+ cells [3]; 72 hr
  SRB Assay Log IΔ2*PSD: -3.59 ± 0.50 log [M]
JB6 P+ cells [3]
  Toxicity label: Toxic
JB6 P+ cells [4]; [7]
  IC50: 4470 nM
JB6 P+ cells [4]; 336 h, 14 days
  minimal effective concentration: 3.39 µM

## CC(C)NCC(O)c1ccc(O)c(O)c1 (stereo not shown) [Isoproterenol]
β2-AR [2]
  Pharmacological property at β2-AR: Full equipotent agonist [44, 58]
JB6 P+ cells [3]; 72 hr
  SRB Assay Log IΔ2*PSD: -4.77 ± 0.16 log [M]
JB6 P+ cells [3]
  Toxicity label: Toxic
JB6 P+ cells [4]; soft agar
  effect on EGF-mediated transformation of JB6 P+ cells, words: failed to increase EGF-mediated transformation of JB6 P+ cells
JB6 P+ cells [4]; 336 h, 14 days
  minimal effective concentration: 24.5 µM

## CC(CCc1ccccc1)NCC(O)c1ccc(O)c(C(N)=O)c1 (stereo not shown) [Labetalol]
β2-AR [2]
  Pharmacological property at β2-AR: Partial agonist for cAMP and full agonist for ERK [44, 45]
JB6 P+ cells [4]; [7]
  IC50: 501 nM
JB6 P+ cells [4]
  Emax: 90.3 ± 8.48%

## COCCc1ccc(OCC(O)CNC(C)C)cc1 (stereo not shown) [Metoprolol]
β2-AR [2]
  Pharmacological property at β2-AR: Inverse agonist for cAMP [51]
JB6 P+ cells [3]; 72 hr
  SRB Assay Log IΔ2*PSD: -4.52 ± 0.20 log [M]
JB6 P+ cells [3]
  Toxicity label: Toxic
JB6 P+ cells [4]; 336 h, 14 days
  minimal effective concentration: 24.5 µM

## CC(C)(C)NCC(O)COc1cccc2c1CC(O)C(O)C2 (stereo not shown) [Nadolol]
β2-AR [2]
  Pharmacological property at β2-AR: Inverse agonist for cAMP [44, 57]
JB6 P+ cells [4]; soft agar
  effect on EGF-mediated transformation of JB6 P+ cells, words: do not prevent EGF-induced transformation of JB6 P+ cells
JB6 P+ cells [4]; 336 h, 14 days
  minimal effective concentration: 4.68 µM

## CC(C)NCC(O)c1ccc2ccccc2c1 (stereo not shown) [Pronethalol]
β2-AR [2]
  Pharmacological property at β2-AR: Inverse agonist for cAMP [48]
JB6 P+ cells [3]; 72 hr
  SRB Assay Log IΔ2*PSD: -4.86 ± 0.23 log [M]
JB6 P+ cells [4]; [8]
  IC50: 2530 nM
JB6 P+ cells [4]; [7]
  IC50: 2510 nM
JB6 P+ cells [4]
  Emax: 100%

## CC(C)NCC(O)COc1cccc2ccccc12 (stereo not shown) [Propranolol]
β2-AR [2]
  Pharmacological property at β2-AR: Inverse agonist for cAMP that recruits ±-arr [29, 51]
JB6 P+ cells [3]; 72 hr
  SRB Assay Log IΔ2*PSD: -4.20 ± 0.11 log [M]
JB6 P+ cells [4]; 336 h, 14 days
  minimal effective concentration: 5.5 µM

## CC(C)(C)NC[C@H](O)COc1nsnc1N1CCOCC1 [Timolol]
β2-AR [2]
  Pharmacological property at β2-AR: Inverse agonist for cAMP [48]
JB6 P+ cells [3]; 72 hr
  SRB Assay Log IΔ2*PSD: -4.22 ± 0.34 log [M]
JB6 P+ cells [4]; [8]
  IC50: 3310 nM
JB6 P+ cells [4]; [7]
  IC50: 3310 nM
JB6 P+ cells [4]
  Emax: 100%
